pIC50: −log10 of the molar value.
How the values were obtained:
[1] = biological target: T1, Histone-lysine N-methyltransferase SMYD3 (Homo sapiens, UniProt Q9H7B4); assay: Inhibition of full length N-terminal His-tagged SMYD3 (1 to 428 residues) (unknown origin) expressed in Escherichia coli using N-terminal GST-tagged MEKK2 as substrate preincubated for 30 mins followed by substrate addition by scintillation proximity assay in presence of [3H]SAM
T1 sequence (Q9H7B4 whole entry): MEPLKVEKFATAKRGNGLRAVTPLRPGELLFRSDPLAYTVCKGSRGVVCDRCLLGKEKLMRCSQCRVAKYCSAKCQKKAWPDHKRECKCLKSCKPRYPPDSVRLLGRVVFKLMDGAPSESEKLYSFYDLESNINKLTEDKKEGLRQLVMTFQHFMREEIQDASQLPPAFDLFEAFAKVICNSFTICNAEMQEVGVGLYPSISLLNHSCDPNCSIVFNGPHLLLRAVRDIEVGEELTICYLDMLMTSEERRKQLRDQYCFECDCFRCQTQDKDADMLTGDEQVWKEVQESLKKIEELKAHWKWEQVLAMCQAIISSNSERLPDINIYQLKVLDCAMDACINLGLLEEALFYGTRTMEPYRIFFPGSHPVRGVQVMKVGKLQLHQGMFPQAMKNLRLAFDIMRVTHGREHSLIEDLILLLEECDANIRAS

[2] = biological target: T1, Histone-lysine N-methyltransferase SMYD3; assay: Inhibition of human SMYD3 expressed in HEK293T/17 cells using FLAG-tagged MEKK2 as substrate incubated for 30 mins in low air flow area followed by incubation for 24 hrs at 37 degC by Western blot analysis; type: cell-based, HEK-293T

SMILES | pIC50 [1] | pIC50 [2]
CN(C)C1CCN(S(=O)(=O)N2[C@@H]3CC[C@H]2C[C@@H](NC(=O)c2cc4c(cc2Cl)NC(=O)C4)C3)CC1 | 8.52 | 
NCCCS(=O)(=O)N1CCC(NC(=O)c2ccc3c(c2)CC(=O)N3)CC1 |  | < 5.00
NC1CCN(S(=O)(=O)N2[C@@H]3CC[C@H]2C[C@@H](NC(=O)c2ccc4c(c2)CC(=O)N4)C3)CC1 | 9.00 | 
CN1CCC(CS(=O)(=O)N2[C@@H]3CC[C@H]2C[C@@H](NC(=O)c2ccc4c(c2)CC(=O)N4)C3)CC1 | 9.00 | 
O=C1Cc2cc(C(=O)N[C@H]3C[C@H]4CC[C@@H](C3)N4S(=O)(=O)CC3CCNCC3)c(Cl)cc2N1 | 8.40 | 5.49
N[C@H]1CC[C@H](S(=O)(=O)N2[C@@H]3CC[C@H]2C[C@@H](NC(=O)c2ccc4c(c2)CC(=O)N4)C3)CC1 | 8.40 | 5.66
NC1CCN(S(=O)(=O)N2[C@@H]3CC[C@H]2C[C@@H](NC(=O)c2cc4c(cc2Cl)NC(=O)C4)C3)CC1 | 9.00 | 5.96
CNC1CCN(S(=O)(=O)N2[C@@H]3CC[C@H]2C[C@@H](NC(=O)c2cc4c(cc2Cl)NC(=O)C4)C3)CC1 | 8.70 | 
NC1CCN(S(=O)(=O)N2[C@@H]3CC[C@H]2C[C@@H](NC(=O)c2cc4c(cc2F)NC(=O)C4)C3)CC1 | 8.30 | 
O=C1Cc2cc(C(=O)NC3CCN(S(=O)(=O)CC4CCNCC4)CC3)ccc2N1 | 7.15 | < 5.00
O=C1Cc2cc(C(=O)N[C@H]3C[C@H]4CC[C@@H](C3)N4S(=O)(=O)CC3CCN(CCCO)CC3)c(Cl)cc2N1 | 8.70 | 
O=C1Cc2cc(C(=O)N[C@H]3C[C@H]4CC[C@@H](C3)N4S(=O)(=O)C[C@H]3CCCNC3)c(Cl)cc2N1 | 8.40 | 5.89
NCCCS(=O)(=O)N1CCC(NC(=O)c2cc3c(cc2Cl)NC(=O)C3)CC1 | 7.10 | 
Cc1cc2c(cc1C(=O)N[C@H]1C[C@H]3CC[C@@H](C1)N3S(=O)(=O)N1CCC(N)CC1)CC(=O)N2 |  | 6.39

From ChEMBL document CHEMBL3797202, “Novel Oxindole Sulfonamides and Sulfamides: EPZ031686, the First Orally Bioavailable Small Molecule SMYD3 Inhibitor” (ACS Med Chem Lett, 2016)
